From ChEMBL document CHEMBL4138123, “Design, synthesis and biological evaluation of novel pyrazolochalcones as potential modulators of PI3K/Akt/mTOR pathway and inducers of apoptosis in breast cancer cells” (Eur J Med Chem, 2017)

How the values were obtained:
COLO 205 = assay: Cytotoxicity against human COLO205 cells assessed as cell growth at 0.01 uM after 48 hrs by sulforhodamine B assay relative to control; type: functional; conditions: COLO 205, 48 h, read-out: Activity
SW-620 [1] = assay: Cytotoxicity against human SW620 cells assessed as cell growth at 10 uM after 48 hrs by sulforhodamine B assay relative to control; type: functional; conditions: SW-620, 48 h, read-out: Activity
SF-268 [2] = assay: Cytotoxicity against human SF268 cells assessed as cell growth at 1 uM after 48 hrs by sulforhodamine B assay relative to control; type: functional; conditions: SF-268, 48 h, read-out: Activity
NCI-H23 = assay: Cytotoxicity against human NCI-H23 cells assessed as cell growth at 10 uM after 48 hrs by sulforhodamine B assay relative to control; type: functional; conditions: NCI-H23, 48 h, read-out: Activity
A498 = assay: Cytotoxicity against human A498 cells assessed as cell growth at 1 uM after 48 hrs by sulforhodamine B assay relative to control; type: functional; conditions: A498, 48 h, read-out: Activity
SW-620 [3] = assay: Cytotoxicity against human SW620 cells assessed as cell growth at 0.1 uM after 48 hrs by sulforhodamine B assay relative to control; type: functional; conditions: SW-620, 48 h, read-out: Activity
A549 = assay: Cytotoxicity against human A549/ATCC cells assessed as cell growth at 100 uM after 48 hrs by sulforhodamine B assay relative to control; type: functional; conditions: A549, 48 h, read-out: Activity
SK-MEL-28 = assay: Cytotoxicity against human SK-MEL-28 cells assessed as cell growth at 1 uM after 48 hrs by sulforhodamine B assay relative to control; type: functional; conditions: SK-MEL-28, 48 h, read-out: Activity
IGROV-1 = assay: Cytotoxicity against human IGROV1 cells assessed as cell growth at 0.1 uM after 48 hrs by sulforhodamine B assay relative to control; type: functional; conditions: IGROV-1, 48 h, read-out: Activity
SF-268 [4] = assay: Cytotoxicity against human SF268 cells assessed as cell growth at 10 uM after 48 hrs by sulforhodamine B assay relative to control; type: functional; conditions: SF-268, 48 h, read-out: Activity
NCI/ADR-RES [5] = assay: Cytotoxicity against human NCI/ADR-RES cells assessed as cell growth at 100 uM after 48 hrs by sulforhodamine B assay relative to control; type: functional; conditions: read-out: Activity
Malme-3M = assay: Cytotoxicity against human MALME-3M cells assessed as cell growth at 10 uM after 48 hrs by sulforhodamine B assay relative to control; type: functional; conditions: read-out: Activity
SNB-19 = assay: Cytotoxicity against human SNB19 cells assessed as cell growth at 1 uM after 48 hrs by sulforhodamine B assay relative to control; type: functional; conditions: SNB-19, 48 h, read-out: Activity
MCF7 [6] = assay: Cytotoxicity against human MCF7 cells assessed as cell growth at 10 uM after 48 hrs by sulforhodamine B assay relative to control; type: functional; conditions: MCF7, 48 h, read-out: Activity
BT-549 = assay: Cytotoxicity against human BT549 cells assessed as cell growth at 0.01 uM after 48 hrs by sulforhodamine B assay relative to control; type: functional; conditions: BT-549, 48 h, read-out: Activity
CCRF-CEM = assay: Cytotoxicity against human CCRF-CEM cells assessed as cell growth at 1 uM after 48 hrs by sulforhodamine B assay relative to control; type: functional; conditions: read-out: Activity
SK-MEL-2 = assay: Cytotoxicity against human SK-MEL-2 cells assessed as growth inhibition after 48 hrs by sulforhodamine B assay; type: functional; conditions: SK-MEL-2, 48 h
HL-60(TB) = assay: Cytotoxicity against human HL-60(TB) cells assessed as cell growth at 10 uM after 48 hrs by sulforhodamine B assay relative to control; type: functional; conditions: HL-60, 48 h, read-out: Activity
OVCAR-4 = assay: Cytotoxicity against human OVCAR4 cells assessed as cell growth at 0.01 uM after 48 hrs by sulforhodamine B assay relative to control; type: functional; conditions: OVCAR-4, 48 h, read-out: Activity
NCI/ADR-RES [7] = assay: Cytotoxicity against human NCI/ADR-RES cells assessed as cell growth at 10 uM after 48 hrs by sulforhodamine B assay relative to control; type: functional; conditions: read-out: Activity
MOLT-4 [8] = assay: Cytotoxicity against human MOLT4 cells assessed as cell growth at 1 uM after 48 hrs by sulforhodamine B assay relative to control; type: functional; conditions: MOLT-4, 48 h, read-out: Activity
OVCAR-5 = assay: Cytotoxicity against human OVCAR5 cells assessed as cell growth at 0.01 uM after 48 hrs by sulforhodamine B assay relative to control; type: functional; conditions: OVCAR-5, 48 h, read-out: Activity
KM12 = assay: Cytotoxicity against human KM12 cells assessed as cell growth at 0.01 uM after 48 hrs by sulforhodamine B assay relative to control; type: functional; conditions: KM12, 48 h, read-out: Activity
NCI-H322M = assay: Cytotoxicity against human NCI-H322M cells assessed as growth inhibition after 48 hrs by sulforhodamine B assay; type: functional
MDA-MB-231 = assay: Cytotoxicity against human MDA-MB-231 cells assessed as cell growth at 0.01 uM after 48 hrs by sulforhodamine B assay relative to control; type: functional; conditions: MDA-MB-231, 48 h, read-out: Activity
UACC-257 = assay: Cytotoxicity against human UACC257 cells assessed as growth inhibition after 48 hrs by sulforhodamine B assay; type: functional; conditions: UACC-257, 48 h
SW-620 [9] = assay: Cytotoxicity against human SW620 cells assessed as growth inhibition after 48 hrs by sulforhodamine B assay; type: functional; conditions: SW-620, 48 h
SR = assay: Cytotoxicity against human SR cells assessed as cell growth at 10 uM after 48 hrs by sulforhodamine B assay relative to control; type: functional; conditions: read-out: Activity
MCF7 [10] = assay: Cytotoxicity against human MCF7 cells assessed as growth inhibition after 48 hrs by MTT assay; type: functional, cell-based; conditions: MCF7, 48 h
HCC 2998 = assay: Cytotoxicity against human HCC2998 cells assessed as growth inhibition after 48 hrs by sulforhodamine B assay; type: functional; conditions: HCC 2998, 48 h
HOP-62 = assay: Cytotoxicity against human HOP62 cells assessed as cell growth at 0.01 uM after 48 hrs by sulforhodamine B assay relative to control; type: functional; conditions: HOP-62, 48 h, read-out: Activity
MOLT-4 [11] = assay: Cytotoxicity against human MOLT4 cells assessed as cell growth at 0.01 uM after 48 hrs by sulforhodamine B assay relative to control; type: functional; conditions: MOLT-4, 48 h, read-out: Activity
T47D = assay: Cytotoxicity against human T47D cells assessed as cell growth at 10 uM after 48 hrs by sulforhodamine B assay relative to control; type: functional; conditions: read-out: Activity
NCI-H460 = assay: Cytotoxicity against human NCI-H460 cells assessed as cell growth at 100 uM after 48 hrs by sulforhodamine B assay relative to control; type: functional; conditions: NCI-H460, 48 h, read-out: Activity
SK-OV-3 = assay: Cytotoxicity against human SKOV3 cells assessed as growth inhibition after 48 hrs by sulforhodamine B assay; type: functional; conditions: SK-OV-3, 48 h
SF-268 [12] = assay: Cytotoxicity against human SF268 cells assessed as cell growth at 0.01 uM after 48 hrs by sulforhodamine B assay relative to control; type: functional; conditions: SF-268, 48 h, read-out: Activity

COc1ccc(-c2cc(/C=C/C(=O)c3ccc(N)cc3)[nH]n2)cc1OC showed a growth at 0.01 µM (COLO 205) of 92%, a growth at 10 µM (SW-620 [1]) of -18% and a growth at 1 µM (SF-268 [2]) of 88%. For the same compound, the growth at 10 µM (NCI-H23) was 21%, the growth at 1 µM (A498) was 89% and the growth at 0.1 µM (SW-620 [3]) was 97%. The growth at 100 µM (A549) was -76%, the growth at 1 µM (SK-MEL-28) was 89% and the growth at 0.1 µM (IGROV-1) was 106%. The growth at 10 µM (SF-268 [4]) was -49%, the growth at 100 µM (NCI/ADR-RES [5]) was 2% and the growth at 10 µM (Malme-3M) was 37%. It also gave a growth at 1 µM (SNB-19) of 84%, a growth at 10 µM (MCF7 [6]) of -6% and a growth at 0.01 µM (BT-549) of 84%. It also gave a growth at 1 µM (CCRF-CEM) of 68%, a GI50 (SK-MEL-2) of 8.44 µM and an LC50 (concentration killing 50% of cells) (SK-MEL-2) of 53.2 µM. For the same compound, the TGI (SK-MEL-2) was 22.2 µM, the growth at 10 µM (HL-60(TB)) was 10% and the growth at 0.01 µM (OVCAR-4) was 85%. For the same compound, the growth at 10 µM (NCI/ADR-RES [7]) was 37%, the growth at 1 µM (MOLT-4 [8]) was 93% and the growth at 0.01 µM (OVCAR-5) was 91%. It also gave a growth at 0.01 µM (KM12) of 102%, a GI50 (NCI-H322M) of 4.34 µM and a TGI (NCI-H322M) of 16.5 µM. The CC50 (NCI-H322M; read-out: LC50 (the source's name)) was 46.2 µM, the growth at 0.01 µM (MDA-MB-231) was 113% and the GI50 (UACC-257) was 6.46 µM. For the same compound, the LC50 (UACC-257) was 45.7 µM, the TGI (UACC-257) was 19.5 µM and the GI50 (SW-620 [9]) was 2.5 µM. For the same compound, the LC50 (lethal concentration, 50% net cell kill) (SW-620 [9]) was 82.9 µM, the TGI (SW-620 [9]) was 6.94 µM and the growth at 10 µM (SR) was -13%. The IC50 (MCF7 [10]) was 1.9 µM, the GI50 (HCC 2998) was 2.02 µM and the LC50 (HCC 2998) was 7.24 µM. The TGI (HCC 2998) was 3.83 µM, the growth at 0.01 µM (HOP-62) was 83% and the growth at 0.01 µM (MOLT-4 [11]) was 108%. For the same compound, the growth at 10 µM (T47D) was 28%, the growth at 100 µM (NCI-H460) was -76% and the GI50 (SK-OV-3) was 4.86 µM. It also gave an LC50 (SK-OV-3) of 41.3 µM, a TGI (SK-OV-3) of 16.8 µM and a growth at 0.01 µM (SF-268 [12]) of 100%.
